Results published in US11433055B2, “Chromane monobactam compounds for the treatment of bacterial infections” (priority 2017, dated 2022).
Counter-ions that a name gives are not always drawn.

How the values were obtained:
Format in all cases: cell-based
Details in all cases: lowest concentration inhibiting 95% of bacterial growth; in the presence of β lactamase inhibitor (BLi, Relebactam); 22 hours, 35±2° C., OD600
[1] = tested on: Acinetobacter baumannii expressing TEM-1, AmpC, and Oxa-24/40 (CL6188)
[2] = tested on: Escherichia coli expressing NDM-1 (CLB30016)
[3] = tested on: Klebsiella pneumoniae expressing KPC-1 (CL6569)
[4] = tested on: Pseudomonas aeruginosa expressing AmpC (CL5701)

Row | Compound | AB_CL6188 MITC95 [1] [µM] | EC_CLB30016 MITC95 [2] [µM] | KP_CL6569 MITC95 [3] [µM] | PA_CL5701 MITC95 [4] [µM]
1 | C[n+]1cc(-c2ccc3c(c2)CC[C@H](CO/N=C(\C(=O)N[C@@H]2C(=O)N(OS(=O)(=O)[O-])C2(C)C)c2csc(N)n2)O3)cn1CCCN [Example 11, (S)-3-((Z)-2-((((R)-6-(1-(3-aminopropyl)-2-methyl-1H-pyrazol-2-ium-4-yl)chroman-2-yl)methoxy)imino)-2-(2-aminothiazol-4-yl)acetamido)-2,2-dimethyl-4-oxoazetidin-1-yl sulfate] | 3.125 | 6.25 | 0.7813 | 3.125
2 | C[n+]1cc(-c2ccc3c(c2)CC[C@H]([C@](C)(O/N=C(\C(=O)N[C@@H]2C(=O)N(OS(=O)(=O)[O-])C2(C)C)c2csc(N)n2)C(=O)O)O3)cnc1NC(CN)CN.O=CO [Example 24, (3S)-3-((Z)-2-(((1S)-1-((2R)-6-(2-((1-amino-3-ammonio-propan-2-yl)amino)-1-methyl-pyrimidin-1-ium-5-yl)chroman-2-yl)-1-carboxyethoxy)imino)-2-(2-aminothiazol-4-yl)acetamido)-2,2-dimethyl-4-oxoazetidin-1-yl sulfate formate] | 1.563 | 3.125 | 0.3906 | 3.125
3 | C[n+]1cc(-c2ccc3c(c2)OCC(CO/N=C(\C(=O)N[C@@H]2C(=O)N(OS(=O)(=O)[O-])C2(C)C)c2csc(N)n2)C3)ccc1NCCN.O=C(O)C(F)(F)F (single isomer, unassigned) [Example 37B] | 50 | 100 | 6.25 | 25
4 | CC1(C)[C@H](NC(=O)/C(=N\O[C@](C)(C(=O)O)[C@H]2CCc3cc(-c4ccc(NCCCN)[n+](CC5CNC5)c4)ccc3O2)c2csc(N)n2)C(=O)N1OS(=O)(=O)[O-].O=CO [Example 22, (S)-3-((Z)-2-(((S)-1-((R)-6-(6-((3-aminopropyl)amino)-1-(azetidin-1-ium-3-ylmethyl)pyridin-1-ium-3-yl)chroman-2-yl)-1-carboxyethoxy)imino)-2-(2-aminothiazol-4-yl)acetamido)-2,2-dimethyl-4-oxoazetidin-1-yl sulfate formate] | 12.5 | 12.5 | 0.7813 | 25
5 | CC1(C)[C@H](NC(=O)/C(=N\O[C@](C)(C(=O)O)[C@H]2CCc3cc(C4CN=C(NC(CN)CN)NC4)ccc3O2)c2csc(N)n2)C(=O)N1OS(=O)(=O)O.O=CO (stereo partly drawn) [Example 31, 5-((R)-2-((S)-1-((((Z)-1-(2-aminothiazol-4-yl)-2-(((S)-2,2-dimethyl-4-oxo-1-(sulfooxy)azetidin-3-yl)amino)-2-oxoethylidene)amino)oxy)-1-carboxyethyl)chroman-6-yl)-2-((1,3-diaminopropan-2-yl)amino)-3,4,5,6-tetrahydropyrimidin-1-ium formate] | 3.125 | 6.25 | 0.3906 | 3.125
6 | CC1(C)[C@H](NC(=O)/C(=N\O[C@](C)(C(=O)O)[C@H]2CCc3cc(C4CN=C(NC[C@@H](O)CN)NC4)ccc3O2)c2csc(N)n2)C(=O)N1OS(=O)(=O)O.O=CO (stereo partly drawn) [Example 29, 2-(((S)-3-amino-2-hydroxypropyl)amino)-5-((R)-2-((S)-1-((((Z)-1-(2-aminothiazol-4-yl)-2-(((S)-2,2-dimethyl-4-oxo-1-(sulfooxy)azetidin-3-yl)amino)-2-oxoethylidene)amino)oxy)-1-carboxyethyl)chroman-6-yl)-3,4,5,6-tetrahydropyrimidin-1-ium formate] | 3.125 | 25 | 1.563 | 6.25
7 | C[n+]1cc(-c2ccc3c(c2)CC[C@H]([C@](C)(O/N=C(\C(=O)N[C@@H]2C(=O)N(OS(=O)(=O)[O-])C2(C)C)c2csc(N)n2)C(=O)O)O3)ccc1NCCN [Example 34, mono((S)-3-((Z)-2-(2-aminothiazol-3-ium-4-yl)-2-(((S)-1-((R)-6-(6-((2-ammonioethyl)amino)-1-methylpyridin-1-ium-3-yl)chroman-2-yl)-1-carboxy-ethoxy)imino)acetamido)-2,2-dimethyl-4-oxoazetidin-1-yl sulfate) mono(2,2,2-trifluoroacetate)] | 12.5 | 25 | 0.78 | 25
8 | C[n+]1cc(-c2ccc3c(c2)CC[C@H](CO/N=C(\C(=O)N[C@@H]2C(=O)N(OS(=O)(=O)[O-])C2(C)C)c2csc(N)n2)O3)ccc1NCCN [Example 35, mono((R)-3-((Z)-2-(2-aminothiazol-3-ium-4-yl)-2-((((R)-6-(6-((2-ammonioethyl)amino)-1-methyl-pyridin-1-ium-3-yl)chroman-2-yl)methoxy)imino)acetamido)-2,2-dimethyl-4-oxoazetidin-1-yl sulfate) mono(2,2,2-trifluoroacetate)] | 6.25 | 25 | 1.281 | 50
9 | CC1(C)[C@H](NC(=O)/C(=N\O[C@](C)(C(=O)O)[C@H]2CCc3cc(C4CNC(NCCN)=N4)ccc3O2)c2csc(N)n2)C(=O)N1OS(=O)(=O)O (single isomer, unassigned) [Example 25] | 50 | 6.25 | 0.3906 | 3.125
10 | C[n+]1cc(-c2ccc3c(c2)CC[C@H]([C@](C)(O/N=C(\C(=O)N[C@@H]2C(=O)N(OS(=O)(=O)[O-])C2(C)C)c2csc(N)n2)C(=O)O)O3)cnc1N(CCN)CC1CNC1.O=CO [Example 15, (S)-3-((Z)-2-(((S)-1-((R)-6-(2-((2-aminoethyl)(azetidin-1-ium-3-ylmethyl)amino)-1-methylpyrimidin-1-ium-5-yl)chroman-2-yl)-1-carboxyethoxy)imino)-2-(2-aminothiazol-4-yl)acetamido)-2,2-dimethyl-4-oxoazetidin-1-yl sulfate formate] | 3.125 | 6.25 | 0.3906 | 6.25
